Data published in ChEMBL document CHEMBL4219140, “First discovery of a potential carbonate prodrug of NNRTI drug candidate RDEA427 with submicromolar inhibitory activity against HIV-1 K103N/Y181C double mutant strain” (Bioorg Med Chem Lett, 2018).
The source made the active and inactive calls. The calls are words filed in the database; no cut-off is given here.

Columns and labels:
[1] = Cytotoxicity against human MT4 cells after 5 days by MTT assay; format: cell-based
[2] = tested on: Human immunodeficiency virus 1; assay: Antiviral activity against HIV1 RES056 expressing reverse transcriptase K103N/Y181C double mutant infected in human MT4 cells assessed as protection against virus-induced cytopathic effect after 5 days by MTT assay; format: functional, organism-based; details: Human immunodeficiency virus 1, RES056, MT4, 120 h
[3] = Selectivity index, ratio of CC50 for human MT4 cells to EC50 for HIV1 RES056 expressing reverse transcriptase K103N/Y181C double mutant; format: toxicity; details: read-out: Ratio CC50/EC50
[4] = Selectivity index, ratio of CC50 for human MT4 cells to EC50 for HIV1 3B expressing wild type reverse transcriptase infected in human MT4 cells; format: toxicity, cell-based; details: read-out: Ratio CC50/EC50
[5] = biological target: Human immunodeficiency virus type 1 reverse transcriptase (Human immunodeficiency virus 1, UniProt Q72547); assay: Inhibition of recombinant wild-type HIV1 reverse transcriptase p66/p51 RNA-dependent DNA polymerase activity assessed as reduction in biotin-dUTP incorporation using poly(rA)/oligo(dT)16 as template/primer after 40 mins by PicoGreen dye based spectrofluorometric analysis
[6] = tested on: Human immunodeficiency virus 1; assay: Resistance index, ratio of EC50 for HIV1 RES056 harboring K103N/Y181C double mutant infected in human MT4 cells to EC50 for wild-type HIV1 3B infected in human MT4 cells; format: functional
[7] = tested on: Human immunodeficiency virus 1; assay: Antiviral activity against HIV1 3B expressing wild type reverse transcriptase infected in human MT4 cells assessed as protection against virus-induced cytopathic effect after 5 days by MTT assay; format: functional, organism-based; details: Human immunodeficiency virus 1, 3B, MT4, 120 h
[8] = Prodrug conversion in human plasma assessed as RDEA427 formation by measuring remaining prodrug levels at 100 uM measured after 30 mins by LC-MS/MS analysis; format: ADME, cell-free; details: 0.5 h
[9] = Prodrug conversion in human plasma assessed as RDEA427 formation by measuring remaining prodrug levels at 100 uM measured after 10 mins by LC-MS/MS analysis; format: ADME, cell-free
[10] = Prodrug conversion in human plasma assessed as RDEA427 formation at 100 uM by LC-MS/MS analysis; format: ADME, cell-free; details: TDE = time-dependent effect
[11] = Prodrug conversion in human plasma assessed as RDEA427 formation by measuring remaining prodrug levels at 100 uM measured after 120 mins by LC-MS/MS analysis; format: ADME, cell-free; details: 2 h
[12] = tested on: Human immunodeficiency virus 2; assay: Antiviral activity against HIV2 ROD infected in human MT4 cells after 5 days by MTT assay; format: functional, organism-based; details: ISOLATE ROD
[13] = Prodrug conversion in human plasma assessed as RDEA427 formation by measuring remaining prodrug levels at 100 uM measured after 60 mins by LC-MS/MS analysis; format: ADME, cell-free; details: 1 h
[14] = Metabolic stability in human plasma assessed as parent compound remaining at 100 uM after 60 mins by LC-MS/MS analysis; format: ADME, cell-free; details: read-out: Stability
[15] = Metabolic stability in human plasma assessed as parent compound remaining at 100 uM after 120 mins by LC-MS/MS analysis; format: ADME, cell-free; details: read-out: Stability
[16] = Metabolic stability in human plasma assessed as parent compound remaining at 100 uM after 10 mins by LC-MS/MS analysis; format: ADME, cell-free; details: read-out: Stability
[17] = Metabolic stability in human plasma assessed as parent compound remaining at 100 uM after 30 mins by LC-MS/MS analysis; format: ADME, cell-free; details: read-out: Stability

remaining at 1 h, 100 µM [14] [%] | remaining at 2 h, 100 µM [15] [%] | remaining at 10 min, 100 µM [16] [%] | remaining at 0.5 h, 100 µM [17] [%] | Structure (SMILES) | CC50 at 120 h [1] [µM] | EC50 [2] [µM] | selectivity ratio [3] | selectivity ratio [4] | IC50 [5] [µM] | Ratio EC50 [6] | EC50 [7] [µM] | Stability [8] [%] | Stability [9] [%] | Drug metabolism [10] | Stability [11] [%] | Activity [12] | Stability [13] [%]
– | – | – | – | Cc1cc(C#N)cc(C)c1Oc1nc(Nc2ccc(C#N)cc2)nc2[nH]ccc12 | ≥ 1.24 | 0.056 | ≥ 22 | ≥ 425 | 0.016 | 19.1 | 0.0029 | – | – | – | – | – | –
– | – | – | – | Cc1cc(C#N)cc(C)c1Oc1nc(Nc2ccc(C#N)cc2)nc2c1ccn2COC(=O)OC(C)C | 1.05 | 0.15 | 7 | 190 | 0.264 | 27.3 | 0.0055 | 73.9 | 87.8 | Tde | 56.4 | inactive | 53.3
– | – | – | – | O=C1Nc2ccc(Cl)cc2[C@@](C#CC2CC2)(C(F)(F)F)O1 [EFAVIRENZ] | > 6.34 | 0.14 | > 44 | > 1320 | – | 30 | 0.0048 | – | – | – | – | – | –
– | – | – | – | Cc1cc(C#N)cc(C)c1Oc1nc(Nc2ccc(C#N)cc2)nc(N)c1Br [ETRAVIRINE] | > 4.59 | 0.047 | > 97 | > 1170 | – | 12 | 0.0039 | – | – | – | – | – | –
– | – | – | – | Cc1ccnc2c1NC(=O)c1cccnc1N2C1CC1 [NEVIRAPINE] | > 15 | > 15 | 1 | > 34 | – | – | 0.44 | – | – | – | – | – | –
5.1 | 0.5 | 54.8 | 19.4 | CC(C)[N+](C)(CCOC(=O)C1c2ccccc2Oc2ccccc21)C(C)C [PROPANTHELINE] | – | – | – | – | – | – | – | – | – | – | – | – | –
